Measurements published in patent US9382249B2, “Antitumor aza-benzo [f] azulen derivative, method for preparing same, and use thereof” (TIANYI BIOSCIENCE CO. LTD., priority 2012, dated 2016).

How the values were obtained:
[1] = tested on: human gastric cancer MGC-803 tumor transplanted in nude mice; experiment: Growth inhibition of human gastric cancer MGC-803 tumor transplanted in nude mice; format: in vivo; conditions: MGC-803 xenograft
Description: (§1) Method: 1. Establishing model of human gastric cancer MGC-803 tumor transplanted in nude mice, and animal groups: MGC-803 cell lines were cultured with medium RPMI1640 containing 10% fetal bovine serum. MGC-803 cells at logarithmic growth phase were trypsinized into single cell suspension. Final concentration of the cell was adjusted with medium RPMI1640 into 5×10^7/mL. 0.2 mL of cell suspension was injected subcutaneously into right anterior axillary of each nude mouse. 8 days after inoculation, when the tumor size grew to about 110 mm^3, the mice were randomized into five groups according to tumor size and body weight of mice, with 10 mice in each group. 5 groups were: a blank control group (purified water containing 0.5% of hydroxypropyl methylcellulose and 0.1% Tween 80, administered through gavage, once per day, for […]), 4, 6 and 9 mg/kg of I-2 treatment group (administered through gavage, once per day, for 17 days), and 100 mg/kg cyclophosphamide group (by intraperitoneal injection, once every 7 days, for 3 weeks), respectively.
(§2) 2. Growth situation of subcutaneous human gastric cancer tumor transplanted in nude mice and inhibitory effect was observed: from the dosing day, body weight of nude mouse as well as the maximum diameter (D) and minimum diameter (d) of tumor were observed every 3-4 days. The tumor size was calculated following the formula V=Dd^2/2, and the tumor growth curve was plotted. At the end of the experiment, the tumor was dissected in whole and picture was taken. Growth rate of nude mouse body weight before and after treatment=[(body weight after treatment−body weight before treatment)/body weight before treatment]*100%; tumor inhibition rate=[1−(tumor size after treatment in the experiment group−tumor size before treatment in the experiment group)/(tumor size after treatment in the control group−tumor size before treatment in the control group)]*100%

[2] = tested on: human gastric cancer SGC-7901 tumor transplanted in nude mice; experiment: Growth inhibition of human gastric cancer SGC-7901 tumor transplanted in nude mice; format: in vivo; conditions: SGC-7901 xenograft
Description: (§3) Method: 1. Establishing model of human gastric cancer SGC-7901 tumor transplanted in nude mice, and animal groups: SGC_7901 cell lines were cultured with medium RPMI1640 containing 10% fetal bovine serum. SGC-7901 cells at logarithmic growth phase were trypsinized into single cell suspension. Final concentration of the cell was adjusted with medium RPMI1640 into 5×10^7/mL. 0.2 mL of cell suspension was injected subcutaneously into right anterior axillary of each nude mouse. 14 days after inoculation, when the tumor size grew to about 130 to 180 mm^3, the nude mice were randomized into five groups according to tumor size and body weight of mice, with 8-12 mice in each group. 5 groups were: a blank control group (purified water containing 0.5% of hydroxypropyl methylcellulose and 0.1% Tween 80, administered through gavage, each at morning and evening, for 10 days), 12.5, 25 and 50 mg/kg of I-1 treatment group (administered through gavage, each at morning and evening, for 10 days), and 100 mg/kg cyclophosphamide (CYP) group (by intraperitoneal injection, once every 5 days, for 2 weeks), respectively.
as §2, with “two” for “3-4”

[3] = tested on: human prostate cancer cell line PC-3; experiment: MTT growth inhibition assay, PC-3; format: cell-based; conditions: PC-3, MTT, 96 hours incubation
Description: (§4) Method: Cells in the logarithmic growth phase (human gastric cancer cell lines SGC-7901, MGC-803, human oral epidermoid carcinoma cell line KB, human non-small cell lung cancer cell line A549, human breast ductal cancer cell line BT-549, human prostate cancer cell line PC-3, human colon cancer cell line HT-29, human brain astrocytic glioblastoma cell line U-87MG and a human hepatoma cell line SMMC-7721) at a concentrations of 1.5×10^4 were inoculated in 96 well plates. The original medium was removed after cell culture for 24 hours until adherence. The tests included blank control group and drug treatment group. For the control group, the medium was replaced with 1640 medium containing 10% fetal bovine serum; for the drug treatment group, the medium was replaced with medium containing compounds I-1, I-2 and I-3 to be tested at concentrations of 100 μM, 50 μM, 10 μM, 1 μM, 0.1 μM, 0.01 μM, 0.001 μM, 0.0001 μM and 0.00001 μM. After incubation for 96 hours add MTT at a concentration of 5 mg/mL, and resume incubation in a CO2 incubator for 4 hours. And then along the upper part of the culture solution, remove 100 μL, of supernatant, add 100 μL of DMSO, allow to place at a dark for 10 minutes. With a microplate reader (a product from Sunrise company), absorbance was measured (at wavelength 570 nm), and cell survival situation is calculated based on the absorbance. Six duplicated wells were set for each treatment. Cell viability (%)=ΔODdrug treatment/ΔODblank control×100.

[4] = tested on: human gastric cancer cell line MGC-803; experiment: MTT growth inhibition assay, MGC-803; format: cell-based; conditions: MGC-803, MTT, 96 hours incubation
Description: as §4

[5] = tested on: human brain astrocytic glioblastoma cell line U-87MG; experiment: MTT growth inhibition assay, U-87MG; format: cell-based; conditions: U-89MG [sic], 96 hours incubation
Description: as §4

[6] = tested on: human colon cancer cell line HT-29; experiment: MTT growth inhibition assay, HT-29; format: cell-based; conditions: HT-29, MTT, 96 hours incubation
Description: as §4

[7] = Body weight change / toxicity in SGC-7901 tumor-bearing nude mice
Description: as §3
(§5) 2. […] The tumor size was calculated following the formula V=Dd^2/2, and the tumor growth curve was plotted. […]

[8] = tested on: human non-small cell lung cancer cell line A549; experiment: MTT growth inhibition assay, A549; format: cell-based; conditions: 96 hours incubation
Description: as §4

[9] = tested on: a variety of human tumor cell lines; experiment: Growth inhibition on various strains of human tumor cell with MTT assay (overall statements); format: cell-based; conditions: in words
Description: as §4, with “Six duplicated wells were set for each treatment. Cell viability (%)=ΔODdrug treatment/ΔODblank control×100.” left out

[10] = tested on: human breast ductal cancer cell line BT-549; experiment: MTT growth inhibition assay, BT-549; format: cell-based; conditions: BT-549, MTT, 96 hours incubation
Description: as §4

[11] = tested on: human hepatoma cell line SMMC-7721; experiment: MTT growth inhibition assay, SMMC-7721; format: cell-based; conditions: SMMC-7721, MTT, 96 hours incubation
Description: as §4

[12] = tested on: human oral epidermoid carcinoma cell line KB; experiment: MTT growth inhibition assay, KB; format: cell-based; conditions: 96 hours incubation
Description: as §4

[13] = tested on: human gastric cancer cell line SGC-7901; experiment: MTT growth inhibition assay, SGC-7901; format: cell-based; conditions: SGC-7901, MTT, 96 hours incubation
Description: as §4

[14] = Body weight change / toxicity in MGC-803 tumor-bearing nude mice
Description: as §1, §5

Row | SMILES | IC50 [3] | IC50 [4] | IC50 [5] | IC50 [6] | IC50 [8] | Inhibitory effect on the growth of a variety of human tumor cell lines [9] | IC50 [10] | IC50 [11] | IC50 [12] | IC50 [13] | also measured
1 | O=P1(N(CCCl)CCCl)NCCCO1 (centres unmarked) [CYP, cyclophosphamide, reference compound] | – | – | – | – | – | – | – | – | – | – | Tumor inhibition rate ([1]; 100 mg/kg, intraperitoneal injection, once every 7 days, for 3 weeks): 62.4%; Tumor inhibition rate ([2]; 100 mg/kg, intraperitoneal injection, once every 5 days, for 2 weeks): 39.5%
2 | Cc1cc2c(cn1)C(c1ccccc1Cl)=Nc1c(n[nH]c1C)N2 [Compound I-1] | 1900 ± 390 nM | 980 ± 40 nM | 400 ± 20 nM | 160 ± 40 nM | 690 ± 240 nM | very significant inhibition | 390 ± 230 nM | 140 ± 30 nM | 1350 ± 50 nM | 290 ± 130 nM | Toxic side effect ([7]; 12.5, 25 and 50 mg/kg, gavage, twice daily, 10 days): negligible toxic side effect; Effect on weight gain of nude mouse ([7]; only for the highest dose of 50 mg/kg, FIG. 3): mild effect on weight gain; Tumor inhibition rate ([2]; 12.5 mg/kg, gavage, each at morning and evening, for 10 days): 67.5%; Tumor inhibition rate ([2]; 25 mg/kg, gavage, each at morning and evening, for 10 days): 83%; Tumor inhibition rate ([2]; 50 mg/kg, gavage, each at morning and evening, for 10 days): 88.6%
3 | CCc1cc2c(cn1)C(c1ccccc1Cl)=Nc1c(n[nH]c1C)N2 [Compound I-2, 9-(2-chlorophenyl)-6-ethyl-1-methyl-2,4-dihydrogen-2,3,4,7,10-pentaaza-benzo [f] azulene] | 850 ± 100 nM | 700 ± 20 nM | 60 ± 40 nM | 80 ± 10 nM | 250 ± 140 nM | very significant inhibition | 70 ± 30 nM | 40 ± 10 nM | 620 ± 10 nM | 90 ± 10 nM | Tumor inhibition rate ([1]; 4 mg/kg, gavage, once per day, for 17 days): 72.5%; Tumor inhibition rate ([1]; 6 mg/kg, gavage, once per day, for 17 days): 97.3%; Tumor inhibition rate ([1]; 9 mg/kg, gavage, once per day, for 17 days): 100%; Toxic side effect ([14]; 4, 6 and 9 mg/kg, gavage, once per day, 17 days): negligible toxic side effect; Effect on weight gain of nude mouse ([14]; only for the highest dose of 9 mg/kg on treatment day 3-6, FIG. 6): mild effect on weight gain
4 | Cc1cc2c(cn1)C(c1ccccc1F)=Nc1c(n[nH]c1C)N2 [Compound I-3] | 11300 ± 1300 nM | 4860 ± 390 nM | 1940 ± 240 nM | 740 ± 80 nM | 3250 ± 250 nM | – | 1950 ± 230 nM | 820 ± 190 nM | 7270 ± 590 nM | 1630 ± 130 nM | –
